# Experimental data: ChEMBL document CHEMBL5608113, “Targeting of CAF-induced therapy resistance in CRC organoid-stroma co-cultures” (2024)
# Assays:
# Assay type in all cases: functional, Homo sapiens
# Settings in all cases: Homo sapiens, read-out: Cell Viability; for viability at 10 µM: Concentration 10 uM; for viability at 1 µM: Concentration 1 uM
# Colon cancer organoid [1] = assay: Targeting of F14 CAF-induced therapy resistance in O14 CRC organoid-stroma co-culture. Cell viability is reported with Gefitinib.
# Colon cancer organoid [2] = assay: Targeting of F14 CAF-induced therapy resistance in O23 CRC organoid-stroma co-culture. Cell viability is reported with Gefitinib.
# Colon cancer organoid [3] = assay: Targeting of F14 CAF-induced therapy resistance in O23 CRC organoid-stroma co-culture. Cell viability is reported with SN-38.
# Colon cancer organoid [4] = assay: Targeting of F14 CAF-induced therapy resistance in O14 CRC organoid-stroma co-culture. Cell viability is reported without Gefitinib.
# Colon cancer organoid [5] = assay: Targeting of F14 CAF-induced therapy resistance in O23 CRC organoid-stroma co-culture. Cell viability is reported without Gefitinib.
SMILES,viability at 10 µM (Colon cancer organoid [1]) [%],viability at 10 µM (Colon cancer organoid [2]) [%],viability at 10 µM (Colon cancer organoid [3]) [%],viability at 10 µM (Colon cancer organoid [4]) [%],viability at 10 µM (Colon cancer organoid [5]) [%],viability at 1 µM (Colon cancer organoid [1]) [%],viability at 1 µM (Colon cancer organoid [2]) [%],viability at 1 µM (Colon cancer organoid [3]) [%],viability at 1 µM (Colon cancer organoid [4]) [%],viability at 1 µM (Colon cancer organoid [5]) [%]
CC(=O)c1c(NS(C)(=O)=O)c2cc(-c3ccc(Cl)cc3)c(-c3ccc(Cl)cc3Cl)nc2n(C)c1=O [MRL-CB1-NC],53.2,48.2,60.4,148,92.4,–,–,–,–,–
Cc1ccc(-c2cnc([C@@]3(O)CC[C@H](C(=O)O)C(C)(C)C3)s2)cc1Nc1cccc(C(F)(F)F)n1 [MRL-SYKi-NC],48.6,51.3,73.3,110,139,–,–,–,–,–
Cc1cc(Nc2nccc(C)n2)cc(-c2cnc([C@@]3(O)CC[C@H](C(=O)O)C(C)(C)C3)s2)c1 [MRL-SYKi],–,–,–,–,–,32.9,63.4,81.4,137,127
COc1cc(C(=O)O)ncc1C#Cc1ccccc1NS(=O)(=O)c1cccc2c(N(C)C)ccnc12 [MSC-0516],45.9,47.7,79.4,117,131,–,–,–,–,–
FC(F)(F)c1ccc2c(c1)nc(-c1cccnc1)n2C1CC1 [MSD-CYP11B2-Negative-control],32.7,69.7,92.9,65.1,150,–,–,–,–,–
CC(C)(O)c1cncc(-c2nc3ccc(F)cc3n2C2CC2)c1 [MSD-CYP11B2],39,79.5,94.9,107,144,–,–,–,–,–
N#CC1(c2ccccn2)CCN(Cc2cc(C(=O)N3CCCC3)c(=O)n3ccccc23)CC1 [MSD-M1PAM-NC],35.2,81.2,63.2,93.4,136,–,–,–,–,–
N#CC1(c2ccccn2)CCN(Cc2cc(C(=O)O)c(=O)n3ccccc23)CC1 [MSD-M1PAM],37,64.3,71.9,84.9,118,–,–,–,–,–
CC(=O)Nc1c(C(C)=O)c(=O)n(C)c2nc(-c3ccc(Cl)cc3Cl)c(-c3ccc(Cl)cc3)cc12 [NAPHTHYRIDINONE],48.1,58.3,81.5,119,109,–,–,–,–,–
CO[C@@H](C)c1c(Nc2ccc([C@@H](N(C)C(=O)C3CCS(=O)(=O)CC3)C(F)(F)F)cc2)cnc2cc(Cl)nn12 [NVS-MALT1-C],34.3,70.3,82.8,84.5,119,–,–,–,–,–
CO[C@@H](C)c1c(Nc2ccc([C@H](N(C)C(=O)C3CCS(=O)(=O)CC3)C(F)(F)F)cc2)cnc2cc(Cl)nn12 [NVS-MALT1],36.8,60.9,89.1,106,226,–,–,–,–,–
Nc1nc(NCc2ccccc2)nc(-c2ccccc2CO)n1 [Ogerin],26.8,71.3,106,123,222,–,–,–,–,–
CN(c1ccnc(CNc2nc(Nc3ccc4c(c3)CC(=O)N4)ncc2C(F)(F)F)n1)S(C)(=O)=O [PF-00911705],–,–,–,–,–,48,34.6,73.5,87,87.4
CC(=O)NCC(=O)N1[C@@H]2CC[C@H]1c1ccc(Nc3ncc(C(F)(F)F)c(NC4CCC4)n3)cc12 [PF-03814735],4.93,25.7,48.4,14.8,33.7,–,–,–,–,–
COc1ccc2cc(OCC3(C(=O)O)CN(C(=O)c4ccc(F)cc4)C3)ccc2c1 [PF-04418948],–,–,–,–,–,43,40.3,81.3,141,142
O=C(c1ccc(F)cc1)N1CC(COc2ccc(Br)cc2)(C(=O)O)C1 [PF-04475866],–,–,–,–,–,36.4,66.8,85.2,159,118
C[C@H](c1ccc(F)cc1)N(Cc1cccc(C(=O)O)c1)C(=O)c1cnc2ccccc2c1 [PF-05105679],61.2,45.6,98.3,126,104,–,–,–,–,–
C[C@H](c1ccc(F)cc1)N(Cc1ccc(Cl)c(C(=O)O)c1)C(=O)c1cnc2ccccc2c1 [PF-05257137],51.5,41.2,93.8,84,81.5,–,–,–,–,–
Cc1noc(C)c1-c1cnc2c(-c3ccc(C(=O)O)cc3)cn([C@@H](C)c3ccccn3)c2c1 [PLX-51107],6.08,78.8,62.8,17.8,109,–,–,–,–,–

SMILES,viability at 10 µM (Colon cancer organoid [1]) [%],viability at 10 µM (Colon cancer organoid [2]) [%],viability at 10 µM (Colon cancer organoid [3]) [%],viability at 10 µM (Colon cancer organoid [4]) [%],viability at 10 µM (Colon cancer organoid [5]) [%],viability at 1 µM (Colon cancer organoid [1]) [%],viability at 1 µM (Colon cancer organoid [2]) [%],viability at 1 µM (Colon cancer organoid [3]) [%],viability at 1 µM (Colon cancer organoid [4]) [%],viability at 1 µM (Colon cancer organoid [5]) [%]
Cn1cc(CNCC2CCN(c3ncc(C(=O)NO)cn3)CC2)c2ccccc21 [QUISINOSTAT],0.22,6.71,1.67,0.685,11.7,–,–,–,–,–
O=C(CCCCCCNC(=O)c1cnc(N(c2ccccc2)c2ccccc2)nc1)NO [RICOLINOSTAT],83,81.3,43.7,141,108,–,–,–,–,–
C=CC(=O)Nc1ccc2[nH]c(=O)n(C3CCN(Cc4ccc(-c5ccc6c(c5)NC(=O)CO6)cc4)CC3)c2c1 [RL2578],33.2,55.4,65.6,101,106,–,–,–,–,–
Cn1cnc2c(F)c(Nc3ccc(Br)cc3Cl)c(C(=O)NOCCO)cc21 [SELUMETINIB],22.1,27.6,48.4,51.6,62.9,–,–,–,–,–
CS(=O)(=O)N1CCCC(NC(=O)[C@H](CCC2CCCCC2)NC(=O)c2ccc(CNC(=O)c3cnc4ccccn34)cc2)C1 (stereo not given in full) [SR-302],–,–,–,–,–,37.1,69.8,54.1,101,126
Nc1c(C(=O)NCc2ccc(C(=O)NCCCC3CCCCC3)cc2)cnn1-c1ccccc1 [SR-318],–,–,–,–,–,41.3,58.8,77.6,85,166
O=C(NCCCC1CCCCC1)c1ccc(CNC(=O)c2cnn(-c3ccccc3)c2C(F)(F)F)cc1 [SR-321],–,–,–,–,–,23.5,48.4,78,92,138
O=C1c2ccc(Nc3ccc(F)cc3F)cc2CCc2ccc(OC[C@H](O)CO)cc21 [Skepinone-L],56.2,72.8,77.4,153,143,–,–,–,–,–
CN1CCN(C(=O)C(C)(C)c2ccc(C(=O)Nc3cn4cc(-c5cc(C(C)(C)C)cc(C(C)(C)C)c5)ccc4n3)cc2)CC1 [T3-CLK-N],53.2,28.2,63.2,112,81.4,–,–,–,–,–
CN1CCN(C(=O)C(C)(C)c2ccc(C(=O)Nc3cn4cc(-c5ccncc5)ccc4n3)cc2)CC1 [T3-CLK],7.96,12.1,18.9,38.4,27.9,–,–,–,–,–
COc1cccc(CNC(=O)c2nc3scc(COCc4ccc(C(=O)O)cc4)c3c(=O)[nH]2)c1 [T-26c],–,–,–,–,–,60,68.3,62.7,173,98.3
COc1cccc(CNC(=O)c2nc3scc(CN(C)Cc4ccccc4)c3c(=O)[nH]2)c1 [T-26f],63.8,45.7,67.3,112,98.9,–,–,–,–,–
COc1cccc2c1c(O)c(C(=O)N(C)c1ccc(C(F)(F)F)cc1)c(=O)n2C [TASQUINIMOD],61.6,47.3,83,80.1,99.2,–,–,–,–,–
CC(C)CC(=O)N1CCc2nc(-c3ccc(Br)cc3)nc(N(C)Cc3ccccc3)c2C1 [THPP-1-NC],–,–,–,–,–,39.6,47.3,70.5,95.7,127
COCCOc1nc(-c2ccc(Cl)nc2)nc2c1CN(C(=O)c1ncn3ccccc13)CC2 [THPP-1],–,–,–,–,–,37.5,47.7,58.4,100,141
Cc1cnc(-c2cc(Cl)ccc2F)cc1-n1c(=O)n(CC(N)=O)c2cnccc21 [TP-008],43.1,43.8,94,114,147,–,–,–,–,–
Cn1nc(C(F)(F)F)cc1-c1cnc(N2CCc3cc(S(=O)(=O)Nc4c(F)cc(Cl)cc4F)cc(N4CCCC4=O)c32)nc1 [TP-020],61.7,65.7,92.4,95,133,–,–,–,–,–
Nc1cnc(N2CCc3cc(S(=O)(=O)Nc4c(F)cc(Cl)cc4F)cc(N4CCCC4=O)c32)nc1 [TP-020n],–,–,–,–,–,71.3,45.8,64.8,104,115
N#Cc1ccc(Nc2ccc3[nH]c(=O)[nH]c3c2)c(Cl)c1 [TP-021n],–,–,–,–,–,59.2,47.2,63.2,115,161
